Article PMC7343282, “Tissue Distribution of Several Series of Cationic Surfactants in Rainbow Trout (Oncorhynchus mykiss) Following Exposure via Water” (Environmental Science & Technology, 2020)
Values joined by “and” are separate entries in the source; they are usually repeats but may differ in a detail not shown here. Identical values can stand only once.

Assays:
[1] = Tissue-blood distribution coefficients and volume of distribution; conditions: whole blood, pH 7.5, Estimated volume of distribution Vd, residues in muscle, liver and blood only
Method: (§1) Blood is the transport medium for contaminants in fish, and the tissue distribution is governed by tissue–blood distribution coefficients. […] Muscle–blood and liver–blood distribution coefficients (DMus–B and DL–B) were calculated as the quotients of the concentrations in the respective tissues and blood. This approach implies that there was an internal test chemical steady state in the fish.
(§2) The experimental data also allow estimation of the volume of distribution (Vd), an important parameter for extrapolating in vitro measures of e.g. metabolism to in vivo. In the context of quantitative in vitro–in vivo extrapolation for fish, Vd is defined as the quotient of the concentration in fish and the concentration in blood and describes the equivalent volume of blood that would contain the same amount of the chemical as 1 kg of fish.[40]Vd was estimated using the residues that had been clearly taken up systemically (i.e., those in muscle, liver and blood).

[2] = system: Danio rerio; conditions: ref REACH dossiers (European Chemicals Agency); cited from earlier work
[3] = system: Pimephales promelas; parameters: method as in REACH dossiers (European Chemicals Agency); conditions: ref REACH dossiers (European Chemicals Agency); cited from earlier work
[4] = system: carp (Cyprinus carpio); parameters: method as in ECHA Registration dossier for octadecylamine; conditions: after acidic methanol wash to remove the mucous, validity uncertain, ref ECHA Registration dossier for octadecylamine; cited from earlier work
[5] = system: rainbow trout (Oncorhynchus mykiss); test: Tissue-blood distribution coefficients and volume of distribution; conditions: residues in muscle, liver and blood only
Method: as §1, §2

Structure (SMILES)	Vd at 7 d ([1]; Mean)	Vd at 7 d ([1]; exposed fish #1)	Vd at 7 d ([1]; exposed fish #2)	Vd at 7 d ([1]; exposed fish #3)	Vd at 7 d ([1]; exposed fish #4)	Vd at 7 d ([1]; exposed fish #5)	Vd at 7 d ([1]; exposed fish #6)	96h-LC50 [2]	Vd at 7 d ([1]; rainbow trout (Oncorhynchus mykiss), other: exposure via water, Mean)	96h-LC50 [3]	BCF [4]	Estimated volume of distribution Vd ([5]; Mean)	Estimated volume of distribution Vd ([5]; exposed fish #1)	Estimated volume of distribution Vd ([5]; exposed fish #2)	Estimated volume of distribution Vd ([5]; exposed fish #3)	Estimated volume of distribution Vd ([5]; exposed fish #4)	Estimated volume of distribution Vd ([5]; exposed fish #5)	Estimated volume of distribution Vd ([5]; exposed fish #6)
CCCCCCCCCN [P9, Nonylamine]	0.91 L/kg	0.59 L/kg	1.06 L/kg	0.8 L/kg	1.6 L/kg	0.83 L/kg	0.56 L/kg											
CCCCCCCCCCCCN [P12, Dodecylamine]	1.29 L/kg	1.13 L/kg	1.31 L/kg	1.07 L/kg	1.87 L/kg	1.56 L/kg	0.79 L/kg	0.54 mg/L and 0.42 mg/L										
CCCCCCCCCCCCCN [P13, tridecylamine]		1.59 L/kg	1.44 L/kg	1.28 L/kg	1.33 L/kg	1.54 L/kg	1.77 L/kg		1.49 L/kg	0.065 mg/L								
CCCCCCCCCCCCCCCCN [P16, hexadecylamine]	1.13 L/kg	0.99 L/kg	1.2 L/kg	1.1 L/kg	1.63 L/kg	1.15 L/kg	0.73 L/kg				300 L/kg							
CCCCCCCCCN(C)C [T9, N,N-dimethylnonylamine]												0.49 L/kg	0.53 L/kg	0.45 L/kg	0.41 L/kg	0.51 L/kg	0.52 L/kg	0.52 L/kg
CCCCCCCCCCCCCN(C)C [T13, N,N-dimethyltridecylamine]												0.71 L/kg	0.58 L/kg	0.64 L/kg	0.59 L/kg	1.18 L/kg	0.80 L/kg	0.47 L/kg
